Measurements as given in ChEMBL document CHEMBL3727350, “Agents and methods for treating ischemic and other diseases” (2014).

biological target: Transient receptor potential cation channel subfamily M member 7 (Mus musculus) (UniProt Q923J1); test: Inhibition of Tet-induced Flag-tagged mouse TRPM7 expressed in HEK293 cells assessed as inhibition of channel-mediated cell death in presence of Mg2+ incubated for 24 to 48 hrs by propidium iodide uptake assay; type: cell-based; design: concentration or dose not given beside the values; settings: not given
Sequence (Q923J1 whole entry): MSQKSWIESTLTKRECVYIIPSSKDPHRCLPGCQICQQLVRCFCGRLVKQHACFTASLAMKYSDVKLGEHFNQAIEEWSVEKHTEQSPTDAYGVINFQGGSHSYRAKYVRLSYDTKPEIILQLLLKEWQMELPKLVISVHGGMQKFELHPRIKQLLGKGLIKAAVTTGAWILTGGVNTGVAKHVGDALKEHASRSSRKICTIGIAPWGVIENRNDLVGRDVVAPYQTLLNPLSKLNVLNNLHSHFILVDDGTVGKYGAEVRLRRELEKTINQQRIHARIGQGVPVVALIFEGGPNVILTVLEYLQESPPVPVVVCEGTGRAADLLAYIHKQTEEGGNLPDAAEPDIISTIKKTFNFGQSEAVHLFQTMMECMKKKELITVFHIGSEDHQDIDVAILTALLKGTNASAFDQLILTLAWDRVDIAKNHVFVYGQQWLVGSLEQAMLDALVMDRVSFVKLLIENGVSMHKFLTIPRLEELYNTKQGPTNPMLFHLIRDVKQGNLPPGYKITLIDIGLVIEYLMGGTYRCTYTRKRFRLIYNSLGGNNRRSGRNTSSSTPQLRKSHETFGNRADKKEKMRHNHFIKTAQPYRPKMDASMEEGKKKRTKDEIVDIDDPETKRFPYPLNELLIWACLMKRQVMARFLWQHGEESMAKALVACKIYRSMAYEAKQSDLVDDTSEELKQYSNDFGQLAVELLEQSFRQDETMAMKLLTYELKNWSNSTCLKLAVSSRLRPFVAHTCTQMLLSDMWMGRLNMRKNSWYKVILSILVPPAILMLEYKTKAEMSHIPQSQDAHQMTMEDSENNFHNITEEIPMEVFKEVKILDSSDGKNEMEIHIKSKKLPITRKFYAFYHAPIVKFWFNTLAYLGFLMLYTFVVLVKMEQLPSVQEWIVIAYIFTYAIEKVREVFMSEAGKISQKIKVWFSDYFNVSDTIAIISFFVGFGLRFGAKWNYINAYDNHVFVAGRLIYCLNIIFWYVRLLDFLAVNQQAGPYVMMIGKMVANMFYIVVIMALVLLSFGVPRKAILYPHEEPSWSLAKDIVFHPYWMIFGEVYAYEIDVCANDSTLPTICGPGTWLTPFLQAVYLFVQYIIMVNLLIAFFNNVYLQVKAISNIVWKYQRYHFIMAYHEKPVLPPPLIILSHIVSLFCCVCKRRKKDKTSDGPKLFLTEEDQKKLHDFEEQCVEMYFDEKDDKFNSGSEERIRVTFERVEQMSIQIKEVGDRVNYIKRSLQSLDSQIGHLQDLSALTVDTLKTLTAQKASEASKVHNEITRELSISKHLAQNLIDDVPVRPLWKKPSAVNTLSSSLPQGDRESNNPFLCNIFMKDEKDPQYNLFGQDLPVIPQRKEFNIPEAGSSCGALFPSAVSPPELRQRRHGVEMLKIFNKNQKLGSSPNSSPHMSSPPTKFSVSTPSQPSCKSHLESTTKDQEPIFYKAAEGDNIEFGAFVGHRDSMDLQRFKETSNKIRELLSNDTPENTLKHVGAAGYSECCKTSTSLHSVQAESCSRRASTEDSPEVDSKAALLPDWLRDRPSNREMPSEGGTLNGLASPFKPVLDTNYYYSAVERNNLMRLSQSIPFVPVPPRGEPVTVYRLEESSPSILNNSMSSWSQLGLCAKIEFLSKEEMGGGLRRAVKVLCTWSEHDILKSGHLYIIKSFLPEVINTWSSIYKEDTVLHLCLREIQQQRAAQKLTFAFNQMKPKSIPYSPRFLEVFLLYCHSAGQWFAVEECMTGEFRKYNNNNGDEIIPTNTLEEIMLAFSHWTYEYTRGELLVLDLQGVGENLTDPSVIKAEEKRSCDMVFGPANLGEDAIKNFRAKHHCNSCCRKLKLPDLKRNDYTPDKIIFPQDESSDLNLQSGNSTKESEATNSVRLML

Q: With `CCOc1ccc(Cc2nccc3cc(OCC)c(OCC)cc23)cc1OCC` as the molecule, how does the inhibition read?
A: Its inhibition is “Dose-dependent effect”.

same assay, conditions: concentration not given here

Q: For `CC[n+]1c(/C=C/c2ccc(OC)cc2)ccc2ccccc21`, which inhibition is on record?
A: The inhibition was under 30%.

Q: Which inhibition does the source give for `O=c1c(-c2ccccc2)c(O)c2cccc3c4ccccc4n1c23` here?
A: Its inhibition is 90%.

Q: `Cc1cc(SCc2nnc(-c3ccc([N+](=O)[O-])c(C)c3)o2)c(C)cc1Cl` was tested. Which inhibition did it give?
A: The inhibition was 80%.

Q: `O=c1[nH]c2c(Cl)c(Cl)ccc2c(O)c1-c1ccccc1` was tested. Which inhibition did it give?
A: The inhibition was 60%.

Q: How did the inhibition turn out when `CCNC(=O)C(Cc1ccccc1)NC(=O)OC(C)(C)C` (configuration not stated) was run?
A: The inhibition was 30%.

Q: Which inhibition does the source give for `O=[N+]([O-])c1cccc(-c2ccc(/C=N/NC(=S)Nc3cccc(F)c3)o2)c1` here?
A: The inhibition was 30%.

Q: For `O=c1c(Cc2ccc(Br)cc2)csc2ccccc12`, which inhibition is on record?
A: Its inhibition is under 30%.

Q: Which inhibition does the source give for `O=C(Nc1ccc(F)cc1F)c1cc(Cl)cc(Cl)c1O` here?
A: Its inhibition is under 30%.

Q: For `Nc1nc(-c2ccc(-c3ccccc3)cc2)cs1`, which inhibition is on record?
A: Its inhibition is 40%.

Q: `Cc1c(C)c(C)c(CN2CCOC(c3ccccc3)C2C)c(C)c1C` (configuration not stated) was tested. Which inhibition did it give?
A: The inhibition was under 30%.

Q: How did the inhibition turn out when `COc1ccc2c(c1)CCC1SC(NC(=O)c3ccco3)=NC21` (configuration not stated) was run?
A: Its inhibition is under 30%.

Q: Which inhibition does the source give for `N#Cc1cc(CCCCc2cc(C#N)c3ccccc3c2)cc2ccccc12` here?
A: The inhibition was under 30%.

Q: How did the inhibition turn out when `Cc1onc(-c2c(Cl)cccc2Cl)c1C(=O)OCCOc1ccc(C(F)(F)F)cc1[N+](=O)[O-]` was run?
A: The inhibition was 60%.

Q: Which inhibition does the source give for `COc1ccc(C(=O)Nc2c(-c3ccc(Br)cc3)c(C(F)(F)F)nn2C)cc1OC` here?
A: Its inhibition is under 30%.

Q: How did the inhibition turn out when `C/C(=N\Nc1c(C)cccc1Cl)c1ccc(Oc2ncc([N+](=O)[O-])s2)cc1` was run?
A: Its inhibition is under 30%.

Q: `Cc1nn(Cc2nc(-c3ccc(Cl)cc3)cs2)c(C)c1Br` was tested. Which inhibition did it give?
A: The inhibition was 40%.

Q: Which inhibition does the source give for `Cc1csc2ncnc(N3CCN(S(=O)(=O)c4ccc(Cl)cc4)CC3)c12` here?
A: The inhibition was 70%.

Q: Which inhibition does the source give for `O=C(c1cc(Br)cc2c1OCC2)N1CCOCC1` here?
A: Its inhibition is under 30%.

Q: How did the inhibition turn out when `O=C(CSC1CN(C(c2ccccc2)c2ccccc2)C1)N/N=C/c1ccncc1` was run?
A: Its inhibition is 50%.

Q: Which inhibition does the source give for `NC(=O)c1sc(-c2ccc(Cl)cc2)cc1NS(=O)(=O)c1ccc(Cl)cc1` here?
A: Its inhibition is 50%.

Q: With `CC(=O)Nc1ccc(S(=O)(=O)NNc2c(Cl)cncc2Cl)cc1Cl` as the molecule, how does the inhibition read?
A: Its inhibition is 50%.

Q: For `O=C(O)C1Cc2ccccc2CN1` (configuration not stated), which inhibition is on record?
A: The inhibition was under 30%.

Q: For `N#Cc1c(Cl)cccc1Oc1ccc(S(=O)(=O)Nc2ccccc2)cc1`, which inhibition is on record?
A: The inhibition was 40%.

Q: `Cc1cc(O)nc2c1c(-c1ccccc1)nn2C` was tested. Which inhibition did it give?
A: The inhibition was under 30%.

Q: How did the inhibition turn out when `CS/C(=N/C(C)(C)C)Nc1ccccc1Cl` was run?
A: Its inhibition is under 30%.

Q: Which inhibition does the source give for `CC(C)Cc1ccc(C(C)c2nnc(-c3cccc([N+](=O)[O-])c3)o2)cc1` (configuration not stated) here?
A: The inhibition was 50%.

Q: How did the inhibition turn out when `CC(=O)C(C#N)c1nc(-c2ccc(Cl)c(C)c2)cs1` (configuration not stated) was run?
A: The inhibition was 70%.

Q: `Fc1ccc(C2CN3C(=N2)C=Cc2ccccc23)cc1` (configuration not stated) was tested. Which inhibition did it give?
A: Its inhibition is under 30%.

Q: Which inhibition does the source give for `CC1CCN(CC(=O)Nc2ccc(Cl)cc2C(=O)c2ccccc2Cl)CC1` here?
A: Its inhibition is 70%.

Q: Which inhibition does the source give for `CNC(=O)c1cc([N+](=O)[O-])cc2c1-c1ccc([N+](=O)[O-])cc1C2=O` here?
A: The inhibition was under 30%.

Q: For `Cn1c(SCC(=O)Nc2cccc3nsnc23)nnc1C(F)(F)F`, which inhibition is on record?
A: Its inhibition is under 30%.

Q: `CC(C)NC(=S)Nc1ccc2c(c1)S(=O)(=O)C=C2` was tested. Which inhibition did it give?
A: Its inhibition is under 30%.

Q: How did the inhibition turn out when `CC(=O)Nc1ccc(S(=O)(=O)Nc2ccccc2C#N)cc1` was run?
A: Its inhibition is under 30%.

Q: How did the inhibition turn out when `O=S(=O)(c1cccc(Cl)c1)N1CCC(O)(c2ccc(Cl)cc2)CC1` was run?
A: Its inhibition is 70%.

Q: `Cc1nc(-c2ccc(C(F)(F)F)cc2)nc(O)c1Cl` was tested. Which inhibition did it give?
A: Its inhibition is under 30%.

Q: Which inhibition does the source give for `O=C(/C=C/c1cccs1)NC(=S)Nc1ccccc1Cl` here?
A: The inhibition was under 30%.

Q: With `CC(C)c1ccc(-c2cc(=O)c3ccccc3o2)cc1` as the molecule, how does the inhibition read?
A: The inhibition was 80%.

Q: `O=[N+]([O-])c1ccc(Nc2cccc(F)c2)c2nonc12` was tested. Which inhibition did it give?
A: Its inhibition is 40%.

Q: How did the inhibition turn out when `CSC(SC)=C(C#N)C(=O)c1ccccc1Cl` was run?
A: The inhibition was under 30%.

Q: Which inhibition does the source give for `CCCCCCCC(=O)NC1=NC2c3ccc(OC)cc3CCC2S1` (configuration not stated) here?
A: Its inhibition is 70%.

Q: How did the inhibition turn out when `CN(C)c1cccc(N(C)C)c1CNC(=O)Nc1ccccc1` was run?
A: The inhibition was under 30%.

Q: For `Cc1cc(C(=O)NNC(=O)Nc2ccc(Cl)cc2)no1`, which inhibition is on record?
A: Its inhibition is 30%.

Q: `O=[N+]([O-])c1ccc(-n2ncc(-c3nc(-c4ccc(Cl)cc4)no3)c2C(F)(F)F)cc1` was tested. Which inhibition did it give?
A: Its inhibition is under 30%.

Q: How did the inhibition turn out when `N#C/C(=N\Nc1ccc(Cl)c(Cl)c1)C(=O)C1CC1` was run?
A: The inhibition was 40%.

Q: How did the inhibition turn out when `Cc1onc(-c2c(Cl)cccc2Cl)c1/C=C1/C(=O)Nc2ccccc21` was run?
A: The inhibition was 30%.

Q: With `N#CC1=C(N)Oc2c3c(c4ccccc4c2C1c1ccc(C(F)(F)F)cc1)C(c1ccc(C(F)(F)F)cc1)C(C#N)=C(N)O3` (configuration not stated) as the molecule, how does the inhibition read?
A: Its inhibition is under 30%.

Q: Which inhibition does the source give for `O=C1/C(=C\c2cccs2)C(c2ccccc2)Oc2ccccc21` (configuration not stated) here?
A: Its inhibition is under 30%.

Q: `CCOC(=O)C(=CNc1csc(C)c1C(=O)OC)C(=O)OCC` was tested. Which inhibition did it give?
A: The inhibition was 60%.

Q: Which inhibition does the source give for `O=C(c1ccc(F)cc1)C1CCN(Cc2c[nH]c(-c3ccccc3)n2)CC1` here?
A: Its inhibition is 30%.

Q: With `CN(C)c1cccc(N(C)C)c1CNC(=O)c1ccc(Cl)cc1` as the molecule, how does the inhibition read?
A: The inhibition was 80%.

Q: `O=C(/C=N/O)Nc1ccccc1F` was tested. Which inhibition did it give?
A: The inhibition was under 30%.

Q: `CC(C)(C)c1ccc(-c2noc(-c3ccc4c(c3)CCO4)n2)cc1` was tested. Which inhibition did it give?
A: Its inhibition is 60%.

Q: For `Cc1ccc(-c2nc(NC(=O)Nc3ccccc3)sc2C)cc1Cl`, which inhibition is on record?
A: The inhibition was under 30%.

Q: `CCOC(C)CNC(=S)N/N=C/c1cccnc1` (configuration not stated) was tested. Which inhibition did it give?
A: The inhibition was under 30%.

Q: Which inhibition does the source give for `Clc1cccc2nnsc12` here?
A: Its inhibition is 30%.

Q: `CCOC(=O)c1nc(COc2ccccc2Cl)[nH]c(=O)c1C` was tested. Which inhibition did it give?
A: The inhibition was under 30%.

Q: For `COc1ccc(CCNC(=O)c2sc3ccccc3c2Cl)cc1OC`, which inhibition is on record?
A: Its inhibition is under 30%.

Q: With `COc1ccc(Nc2cc(=O)n(-c3ccccc3)c3c2c(=O)n(C)c(=O)n3C)cc1` as the molecule, how does the inhibition read?
A: The inhibition was 60%.

Q: With `FC(F)(F)c1ccccc1NC(=S)N1CCCN(c2nc3ccc(Cl)cc3s2)CC1` as the molecule, how does the inhibition read?
A: Its inhibition is 60%.

Q: How did the inhibition turn out when `Cn1nc(-c2ccc(Cl)cc2)cc1NS(=O)(=O)c1cccc2nonc12` was run?
A: The inhibition was under 30%.

Q: With `CCCC1c2ccsc2CCN1C(=S)Nc1ccc(Cl)cc1Cl` (configuration not stated) as the molecule, how does the inhibition read?
A: The inhibition was 40%.

Q: Which inhibition does the source give for `CSc1scc(NC(=O)Nc2cccc(Cl)c2)c1S(=O)(=O)C(C)C` here?
A: The inhibition was 60%.

Q: For `COc1ccc(-c2n[nH]cc2CN2CCN(c3ccccc3OC)CC2)cc1`, which inhibition is on record?
A: Its inhibition is under 30%.

Q: Which inhibition does the source give for `CC(C)(C)[C@H](CO)/N=C/c1cccc(/C=N/[C@H](CO)C(C)(C)C)n1` here?
A: Its inhibition is under 30%.

Q: How did the inhibition turn out when `CN1c2ccccc2C(C)(C)C12C=Cc1c(ccc3ccccc13)O2` (configuration not stated) was run?
A: Its inhibition is under 30%.

Q: For `Cc1cc(-c2nnc(C(F)(F)F)o2)ccc1NC(=S)Nc1ccc(Cl)cc1Cl`, which inhibition is on record?
A: Its inhibition is 70%.

Q: `Cc1cc(OCc2c(C)c(C)c(C)c(C)c2C)c2c(Cl)ccc(C)c2n1` was tested. Which inhibition did it give?
A: The inhibition was 40%.

Q: With `COC(=O)c1cc(C)nc(Sc2ccccc2NC(=O)c2ccccc2)n1` as the molecule, how does the inhibition read?
A: The inhibition was under 30%.

Q: With `NCCCNc1ccc2c3c(nn2CCNCCO)-c2c(O)ccc(O)c2C(=O)c13` as the molecule, how does the inhibition read?
A: Its inhibition is 80%.

Q: For `CCc1c(O)c2ccccc2n(C)c1=O`, which inhibition is on record?
A: Its inhibition is 50%.

Q: With `COc1ccccc1C1CCN(Cc2c[nH]nc2-c2ccccc2)CC1` as the molecule, how does the inhibition read?
A: Its inhibition is 80%.

Q: How did the inhibition turn out when `COc1ccccc1NC(=O)Nc1nn(C)c2cccc(N(C)C)c12` was run?
A: The inhibition was 60%.

Q: How did the inhibition turn out when `FC(F)(F)c1ccc(C2c3ccsc3CCN2C(=S)Nc2ccc(Cl)cc2Cl)cc1` (configuration not stated) was run?
A: The inhibition was 70%.

Q: For `CCOC(=O)C(=CNc1cc(OC)cc(C(F)(F)F)c1)C(=O)OCC`, which inhibition is on record?
A: The inhibition was 70%.

Q: Which inhibition does the source give for `Cc1cc(Sc2ncnc3cc(-c4ccc(F)cc4)sc23)c(C)cc1Cl` here?
A: Its inhibition is under 30%.

Q: With `CN(C)C=O.O=C(Nc1nnc(Sc2ccnc3cc(Cl)ccc23)s1)c1sc2ccccc2c1Cl` as the molecule, how does the inhibition read?
A: The inhibition was 80%.

Q: `c1ccc(/N=c2/[n-]n(-c3ccccc3)c[n+]2-c2ccccc2)cc1` was tested. Which inhibition did it give?
A: Its inhibition is under 30%.

Q: How did the inhibition turn out when `CCOC(=O)c1c(C)n(-c2ccccc2)c2ccc(OC(=O)C(c3ccccc3)C3CCCC3)cc12` (configuration not stated) was run?
A: The inhibition was 30%.

Q: How did the inhibition turn out when `COc1ccc(CCN2C(=O)CS/C2=N\c2ccc(C(C)(C)C)cc2)cc1OC` was run?
A: The inhibition was under 30%.

Q: `CCOC(=O)C(C#N)Cc1c(C)c(C)c(C)c(C)c1C` (configuration not stated) was tested. Which inhibition did it give?
A: Its inhibition is under 30%.

Q: How did the inhibition turn out when `Cc1ccc(S(=O)(=O)NCCN2CCN(C(=O)OC(C)(C)C)CC2)cc1` was run?
A: Its inhibition is under 30%.
